We go through four compounds from patent US4657865A, “Pullulanase-like enzyme, method for preparation thereof, and method for saccharification of starch therewith” (Agency of Industrial Science & Technology, priority 1985, dated 1987).

Experiment [1] has as its system pullulanase-like enzyme. In words: Inhibition of the pullulanase activity by metal salts. It is filed as biochemical, Bacillus subtilis. As to conditions: inhibitor concentration 1×10^-3 M. The protocol:
(6) Inhibitor: This enzyme undergoes not less than 90% of inhibition by each of HgCl2 and AgNO3 used in a concentration of 1×10^-3 M and about 70% of inhibition by ZnSO4 used in the same concentration.
(10) Procedure for determination of activity: This enzyme is added in a suitable amount to 0.5 ml of a 1% pullulan solution (pH 7.0) obtained by dissolving pullulan in 0.1M phosphate buffer. The mixture is made up to a total volume of 1 ml with water and incubated at 40° C. The amount of this enzyme which is required in producing reducing power equivalent to 1μ mole of glucose after one minute standing under the aforementioned conditions is defined as one unit.

Experiment [2] relates to Bacillus subtilis TU strain. In words: Growth on culture medium containing Tunicamycin, TU strain. It is filed as cell-based. As to conditions: culture medium containing Tunicamycin 25-100 μg/ml. The source says:
(§1) The aforementioned pullulanase-like enzyme is produced by a bacterium isolated from soil and identified to be Bacillus subtilis (FERM BP-672). […] It has been designated as Bacillus subtilis TU strain, deposited with Fermentation Research Institute, Agency of Industrial Science & Technology on Oct. 13, 1984 under FERM 7893, and also transferred to the International Deposition based on the Budapest Treaty on Dec. 20, 1984 and designated FERM BP-684.
(§2) A strain of Bacillus subtilis (FERM BP-672) was suspended in distilled water and irradiated with the ultraviolet light (15 W) from its source at a distance of about 30 cm for 5 minutes. Part of the irradiated suspension was placed in a culture medium containing 75 μg of Tunicamycin per ml (containing 1% of polypepton, 1% of soluble starch, 0.3% of K2 HPO4, and 0.1% of MgSO4.7H2 O) and aerobically cultured therein at 30° C. for three days. The grown microorganism was sprayed on a plate culture medium with the same culture medium containing agar and incubated at 30° C. The colonies which grew were preserved on a slant medium of the same composition. In the Tunicamycin-resistant mutants so produced, there was obtained in high frequency a strain of enhanced activity to produce the pullulanase-like enzyme. Bacillus subtilis TU strain (FERM BP-684) was thus obtained.

The subject of experiment [3] is Bacillus subtilis (FERM BP-672) parent strain. In words: Growth on culture medium containing Tunicamycin, parent strain. It is filed as cell-based. As to conditions: culture medium containing Tunicamycin 25-100 μg/ml.
Source text: as §1, §2

In the case of `O=[N+]([O-])[O-].[Ag+]` [AgNO3], the inhibition result in experiment [1] is “not less than 90%”.

Regarding `[Cl][Hg][Cl]` [HgCl2], the inhibition result in experiment [1] is “not less than 90%”. For the compound `O=S(=O)([O-])[O-].[Zn+2]` [ZnSO4], in experiment [1], the inhibition result is given as “about 70%”. As for Tunicamycin, the “growth of the TU strain” value in experiment [2] is given as “grows fairly well”. In addition, the “growth of the parent strain” value in experiment [3] was “fails to show any growth”.
